4 molecules from patent publication US20200181597A1, “Composition and Application of Arginine-depleting Agents for Cancer, Obesity, Metabolic Disorders, and Related Complications and Comorbidities” (THE HONG KONG POLYTECHNIC UNIVERSITY, priority 2018, published 2020) can be followed below.

Data set [1] concerns MDA-MB-231 breast cancer cells. As to the kind of experiment: cells. Format: cell-based, human. As to conditions: Homo sapiens. On the procedure: (§1) Breast cancer cell lines (e.g. human MCF-7 and MDA-MB-231 cells) were used in these studies. Cancer cells (5×10^3 cells) were seeded in 96-well plates (TPP) with […] complete medium. The plates were incubated in incubator overnight and the cells were allowed to adhere to the plates. […] Each dosage was triplicated in 3 wells to obtain the average change of cell viability. […] The plates were put back into the incubator and further incubated for 4 h. To dissolve the insoluble compound, formazan, formed by MTT, 100 μl of 10% SDS in 0.01 M HCl was added. The plates were incubated at 37° C. overnight. The color change was measured by spectrophotometer at 570 nm. Control set up (without any drug) was used as base to calculate percentage of cell viability which was used to plot the dose response curve by the software Prism 6.0 (GraphPad) to find the IC50 values. […] CalcuSyn software (Biosoft) was used for calculating the CI values.

In the next data set the test system is MCF-7 cancer cells. As to the kind of experiment: cells. The class given is cell-based, human. To be noted: Homo sapiens. On the procedure:
as §1

For data set [2], the system named is HCT116. As to the kind of experiment: cells. To be noted: Homo sapiens, HCT-116, 72 h. On the procedure: (§2) The in vitro efficacy of ABD and rhArg fusion protein was tested on human colon cancer cell lines. Human colon cancer cell lines (HCT116, LOVO and HT29) were seeded in 96-well plate at densities of 5×10^3 cells/well. After 1 day of incubation, the culture medium was replaced with medium containing different concentrations (2, 0.4, 0.08, 0.016 and 0.0032 U/ml) of N-ABD094-rhArg (SEQ ID NO: 50). MTT assay was conducted at Day 3 [3 days after N-ABD094-rhArg (SEQ ID NO: 50) treatment] to determine the IC50 values. The culture medium was replaced with MTT solution (1 mg/ml) (Invitrogen) and incubated at 37° C. for 4 h. After incubation, MTT solution was replaced with dimethyl sulfoxide (DMSO), and the absorbance at 570 nm was measured with a reference of 650 nm. The cell viability was determined by dividing the absorbance of N-ABD094-rhArg-treated cells by the average absorbance of untreated cells. […] Three independent sets of experiments (n=3) were performed for each cell line.
(§3) MTT assay was conducted at Day 3. Three independent sets of experiments (n=3) were performed for each cell line.
(§4) For drug-combination assay, a non-constant ratio analysis was performed (Hastak et al., 2010, Cancer Res. 70(20):7970-7980). Colon cancer cells were seeded and after 1 day of incubation, the culture medium was replaced with medium containing different concentrations of N-ABD094-rhArg (SEQ ID NO: 50) (2, 0.4, 0.08, 0.016, 0.0032 U/ml) combined with fixed amount of CQ according to its IC50. MTT assay was conducted at Day 3. The combination index (CI) of combined N-ABD094-rhArg (SEQ ID NO: 50) and CQ treatment was analyzed by software CalcuSyn version 2.1. Three independent sets of experiments (n=3) were performed for each cell line.

The subject of another data set is HT29. As to the kind of experiment: cells. To be noted: Homo sapiens, HT-29, 72 h. On the procedure:
as §2, §3, §4

The next data set concerns LOVO. Briefly: cells. As to conditions: Homo sapiens, LoVo, 72 h. On the procedure:
as §2, §3, §4

Data set [3] has as its system HCT116. Briefly: MTT cytotoxicity of ADI, BCA, ADC. Format: cell-based, human. As to conditions: HCT116, 72 h. On the procedure:
(§5) For cell proliferation assay, cancer cells (5×10^3) in a volume of 100 μL of growth medium were seeded to each well of a 96-well plate and incubated for 24 h. The culture medium was replenished by arginine free medium (AFM) supplemented with different concentrations of arginine, fresh medium containing various concentrations of different arginine depleting enzymes as well as using these enzymes in combination with citrulline. The plate was incubated for an additional 1-3 days at 37° C. in an incubator containing a humidified atmosphere of 95% air and 5% CO2.
(§6) Quantitative cell proliferation assays were performed using MTT (3-[4,5-dimethylthiazol-2-yl]-2,5-diphenyl tetrazolium bromide) assays as widely described elsewhere. The amount of arginine depleting enzyme required to kill 50% of the cells in a culture was defined as IC50.
(§7) The cytotoxicities of arginine deiminase (ADI), bacterial arginase (BCA) and arginine decarboxylase (ADC) were determined in a comparative study in five tumor cell lines: A375, HeLa, BxPC-3, PANC-1, and HCT116.
(§8) Table 6. IC50 and maximum cytotoxicity of ADI, BCA and ADC on five human cancer cell lines. Cells were treated for 72 h before MTT analysis. Data are the mean of three experiments performed in triplicate. IC50 value is defined as the amount of enzyme needed to achieve 50% inhibition of cell viability. Maximum cytotoxicity is expressed as the maximum percentage of nonviable cells achieved by each enzyme. ADI-resistant cells are defined as cells of which more than 50% survive under the maximum dose of ADI tested.

A further data set relates to PANC-1. Briefly: MTT cytotoxicity of ADI, BCA, ADC. As to conditions: PANC-1, 72 h. Format: cell-based, human. The procedure: as §5, §6, §7, §8
The subject of the next data set is A375. As to the kind of experiment: MTT cytotoxicity of ADI, BCA, ADC. The class given is cell-based, human. To be noted: A375, 72 h. The procedure:
as §5, §6, §7, §8

A further data set deals with HeLa. Briefly: MTT cytotoxicity of ADI, BCA, ADC. Format: cell-based, human. As to conditions: 72 h. The procedure:
as §5, §6, §7, §8

For the next data set, the system named is BxPC-3. As to the kind of experiment: MTT cytotoxicity of ADI, BCA, ADC. The class given is cell-based, human. To be noted: BxPC-3, 72 h. On the procedure:
as §5, §6, §7, §8

In data set [4] the target is human serum albumin (HSA), P02768.
For data set [5], the target named is human serum albumin (HSA) (human, UniProt P02768 25-609). Briefly: non-denaturing PAGE; 30 pmol HSA titrated with 7.5-120 pmol fusion protein.
Where [6] appears, read: MDA-MB-231, 72 h, read-out: Mean of % Cell Viability.
[7] abbreviates: MCF7, read-out: Mean of % Cell Viability.

A word on the IC50: it is the concentration at which inhibition is half-maximal. A word on the viability: it is a read-out of living cells in per cent, often relative to untreated cells. As to `CCN(CC)CCCC(C)Nc1ccnc2cc(Cl)ccc12` (stereo not drawn) [CQ, chloroquine], the concentration for half-maximal inhibition (IC50) in data set [1] (MDA-MB-231) was 73.4 µM; in the data set on MCF-7 cancer cells (MCF7) it was 67.2 µM; in the data set with HCT116 [2] it was greater than 100 µM; in the data set on HT29, 71 µM; in the data set on LOVO it was 15 µM. Besides, the viability at 0.16 µM in data set [1] (setting [6]) is 99%; in the data set on MCF-7 cancer cells (setting [7]), 96.3%. Also, the values for the viability at 0.8 µM (in data set [1] (setting [6]); in the data set on MCF-7 cancer cells (setting [7])) were 98.1% and 85.9%, respectively. For the same molecule, the figures for the viability at 4 µM (in data set [1] (setting [6]); in the data set with MCF-7 cancer cells (setting [7])) were 82.2% and 83.3%, respectively. Also, the figures for the viability at 20 µM (in data set [1] (setting [6]); in the data set with MCF-7 cancer cells (setting [7])) were 75.2% and 72.4%, respectively. Besides, the results for the viability at 100 µM (in data set [1] (setting [6]); in the data set on MCF-7 cancer cells (setting [7])) were 43.2% and 40.7%, respectively.

B1: BCA: bacterial arginase (Bacillus caldovelox arginase) (protein, UniProt P53608 1-299, looked up)
Arginase: MKPISIIGVPMDLGQTRRGVDMGPSAMRYAGVIERLERLHYDIEDLGDIPIGKAERLHEQGDSRLRNLKAVAEANEKLAAAVDQVVQRGRFPLVLGGDHSIAIGTLAGVAKHYERLGVIWYDAHGDVNTAETSPSGNIHGMPLAASLGFGHPALTQIGGYSPKIKPEHVVLIGVRSLDEGEKKFIREKGIKIYTMHEVDRLGMTRVMEETIAYLKERTDGVHLSLDLDGLDPSDAPGVGTPVIGGLTYRESHLAMEMLAEAQIITSAEFVEVNPILDERNKTASVAVALMGSLFGEKLM
For the molecule B1, the IC50 was 0.22 µg/mL with HCT116 [3]; 1.81 µg/mL in the data set on PANC-1; 0.12 µg/mL in the data set on A375; 1.25 µg/mL in the data set on HeLa; 0.44 µg/mL in the data set with BxPC-3. In addition, the Maximum cytotoxicity is on record as 81.05% with HCT116 [3]; 63.01% in the data set on PANC-1; 86.92% in the data set with A375; 61.14% in the data set with HeLa; 84.82% with BxPC-3.

B2: BCA-6xHis-ABD fusion protein BHA (SEQ ID NO: 75) (protein)
chain: MKPISIIGVPMDLGQTRRGPDMGPSAMRYAGVIERLERLHYDIEDLGDIPIGKAERLHEQGDSRLRNLKAVAEANEKLAAAVDQVVQRGRFPLVLGGDHSIAIGTLAGVAKHYERLGVIWYDAHGDVNTAETSPSGNIHGMPLAASLGFGHPALTQIGGYCPKIKPEHVVLIGVRSLDEGEKKFIREKGIKIYTMHEVDRLGMTRVMEETIAYLKERTDGVHLSLDLDGLDPSDAPGVGTPVIGGLTYRESHLAMEMLAEAQIITSAEFVEVNPILDERNKTASVAVALMGSLFGEKLMHHHHHHAQHDEAVDANSLAEAKVLANRELDKYGVSDYYKNLINNAKTVEGVKALIDEILAALP
B2: in [4], the “specific activity (arginine catabolic activity, DAMO assay) at BHA:HSA mole ratios 1:10, 1:5, 1:1, 5:1 and 10:1” value was “approximately 200 U/mg”.

B3: N-ABD-rhArg fusion protein (SEQ ID NO: 49) (enzyme)
chain: MHHHHHHDEAVDANSLAEAKVLANRELDKYGVSDYYKNLINNAKTVEGVKALIDEILAALPSGSNNNNNNGSGGMSAKSRTIGIIGAPFSKGQPRGGVEEGPTVLRKAGLLEKLKEQECDVKDYGDLPFADIPNDSPFQIVKNPRSVGKASEQLAGKVAEVKKNGRISLVLGGDHSLAIGSISGHARVHPDLGVIWVDAHTDINTPLTTTSGNLHGQPVSFLLKELKGKIPDVPGFSWVTPCISAKDIVYIGLRDVDPGEHYILKTLGIKYFSMTEVDRLGIGKVMEETLSYLLGRKKRPIHLSFDVDGLDPSFTPATGTPVVGGLTYREGLYITEEIYKTGLLSGLDIMEVNPSLGKTPEEVTRTVNTAVAITLACFGLAREGNHKPIDYLNPPK
notes: It was expressed in E. coli ER2566 and purified on a Ni-IDA column
For the molecule B3, the binding result in [5] is listed as “binds”.
